Measured values: patent publication US5753631A, “Intercellular adhesion mediators” (Cytel Corporation, priority 1995, dated 1998)

Tests used:
selectin receptors = settings: Berg et al.; cited from earlier work
ELAM-1 [1] = target: T1, ELAM-1 (Homo sapiens, UniProt P16581); assay: Liposome inhibition of neutrophil (PMN) adhesion to IL-1 activated endothelium (HUVEC); assay type: cell-based; settings: for inhibition of neutrophil adhesion to activated endothelium: E-Selectin dependent binding assay, liposomes
T1 construct: adhesion of neutrophils (PMN)
T1 sequence (P16581 22-610): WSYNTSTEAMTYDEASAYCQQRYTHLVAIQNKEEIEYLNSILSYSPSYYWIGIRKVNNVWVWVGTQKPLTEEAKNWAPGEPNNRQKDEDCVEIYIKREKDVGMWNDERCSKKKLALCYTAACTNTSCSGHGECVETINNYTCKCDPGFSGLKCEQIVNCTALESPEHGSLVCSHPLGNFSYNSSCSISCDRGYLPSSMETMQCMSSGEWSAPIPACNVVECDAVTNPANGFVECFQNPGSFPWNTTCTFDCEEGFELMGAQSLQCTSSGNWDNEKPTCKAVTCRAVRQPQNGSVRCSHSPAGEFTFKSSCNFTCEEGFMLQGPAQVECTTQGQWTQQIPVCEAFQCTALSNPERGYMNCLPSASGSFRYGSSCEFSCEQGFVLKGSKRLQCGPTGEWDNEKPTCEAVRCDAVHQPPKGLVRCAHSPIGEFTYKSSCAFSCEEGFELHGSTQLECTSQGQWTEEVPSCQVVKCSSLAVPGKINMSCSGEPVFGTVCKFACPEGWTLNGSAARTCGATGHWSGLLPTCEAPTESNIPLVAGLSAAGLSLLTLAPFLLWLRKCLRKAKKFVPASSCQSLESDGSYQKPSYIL
Procedure: Two synthetic compounds were prepared. One comprised sialic acid in an α2,3 linkage, as in naturally occurring SLe^x. The second comprised sialic acid in an α2,6 linkage, to examine the importance of the nature of the linkage to receptor binding.
Liposomes were prepared by adding 12 μl of absolute ethanol (ETOH) to each tube, warming briefly in a 50° C. water bath and sonicating for 2 min. 238 μl of warm phosphate buffered saline (PBS) was added slowly to each tube while sonicating and sonication was continued for a further 10 min. The final concentration of stock liposomes was 400 μg glycolipids/ml in 5% ETOH/PBS.
1. HUVECs, PMNs, and liposomes were prepared as described above.
2. The stimulated HUVEC assay plate was removed from the incubator and the wells were washed two times with RPMI 1640 containing 5 mg/ml bovine serum albumin (BSA).
3. Liposomes stocks were diluted in the HBSS/BSA buffer to make solutions equal to: 40 μg/ml, 30 μg/ml, 15 μg/ml, 7.5 μg/ml, 3.75 μg/ml and 1.87 μg/ml. Similar dilutions were prepared from a control stock consisting of PBS-5% ETOH.
4. The medium was removed from the wells of the assay plate with a pasteur pipette, a few wells at a time.
5. 0.05 ml of each liposome suspension was added to duplicate wells on the stimulated assay plate. Control wells received the liposome buffer containing ethanol HBSS and BSA at the same concentrations as in the liposome containing wells. Control buffer was plated on unstimulated and stimulated HUVEC. Liposome containing samples were added to stimulated wells only.
6. The plates were incubated for 40 min at 37° C. and then 50 μl of PMNs were added to the assay wells. The final concentration of cells was 5×10^5 well in 100 μl.
7. The assay plate was returned to the incubator (5% CO2, 37° C.) for 8 min.
8. Unbound cells were removed from the wells of the assay plates by systematic resuspension using a P200 multichannel pipette followed by addition and removal of 0.2 ml of medium.
9. All of the medium was removed from the wells and 50 μl of solubilization buffer was added. This consisted of citrate buffer (24.3 ml of 0.1M Citric acid, 10.5 g/500 ml+25.7 ml of 0.2M dibasic sodium phosphate, 14.2 g/500 ml and SQ H2 O to 100 ml) containing 0.1% NP-40 detergent.
10. The plate was incubated on a rotary shaker for 10 min and then 0.05 ml of OPDA solution [8 mg o-phenylene-diamine, Sigma cat# P-1526, 8 μl of 30% H2 O2 and 10 ml of citrate buffer (as above)] was added to each well. The reaction was allowed to develop for 15 min and then 25 μl of 4N H2 SO4 was added to each well to stop the reaction.
11. A reagent bulk was prepared by mixing 100 μl volumes of the solubilization buffer and the OPDA solution with 50 μl of 4N H2 SO4.
12. 100 μl of supernatant was removed from each of 2 wells and transferred to a flexible ELISA assay plate (Falcon). The plate was scanned spectrophotometrically at 492 nm within 30 min.

ELAM-1 [2] = target: T1, ELAM-1; assay: as above; assay type: cell-based; settings: 0.47 μg/ml; Control +IL-1β 0.782
[3] = 1.87 μg/ml, Control +IL-1β 0.725
[4] = 3.75 μg/ml, Control +IL-1β 0.698
[5] = 7.5 μg/ml, Control +IL-1β 0.658

Mean absorbance at 492 nm (bound neutrophils) (ELAM-1 [1]; [3]) | Mean absorbance at 492 nm (bound neutrophils) (ELAM-1 [1]; [4]) | Mean absorbance at 492 nm (bound neutrophils) (ELAM-1 [1]; [5]) | Mean absorbance at 492 nm (bound neutrophils) (ELAM-1 [1]; 15 μg/ml, Control +IL-1β 0.740) | Mean absorbance at 492 nm (bound neutrophils) (ELAM-1 [1]; 20 μg/ml, Control +IL-1β 0.657) | Mean absorbance at 492 nm (bound neutrophils) (ELAM-1 [2]) | Molecule | recognition by selectin receptors (selectin receptors) | inhibition of neutrophil adhesion to activated endothelium (ELAM-1 [1])
 |  |  |  |  |  | CC(=O)N[C@H]1[C@H]([C@H](O)[C@H](O)CO)O[C@@](O[C@H]2[C@@H](O)[C@@H](CO)O[C@@H](O[C@H]3[C@H](O[C@@H]4O[C@@H](C)[C@@H](O)[C@@H](O)[C@@H]4O)[C@@H](CO)OC(O)[C@@H]3NC(C)=O)[C@@H]2O)(C(=O)O)C[C@@H]1O (stereo partly drawn) [SLe^a, NeuAcα2,3Galβ1,3(Fucα1,4)GlcNAcβ1--] | recognized by selectin receptors | 
0.580 | 0.483 | 0.359 | 0.270 | 0.156 | 0.642 | NeuAcα2,3Galβ1,4(Fucα1,3) GlcNAcβ1,3Galβ1,4Glcβ1,1Ceramide [(2,3) SLe^x] |  | inhibit neutrophil adhesion to activated endothelium
0.690 | 0.655 | 0.602 | 0.636 | 0.663 | 0.695 | NeuAcα2,6Galβ1,4(fucα1,3)GlcNacβ1,3Galβ1,4Glcβ1,1Ceramide [(2,6) SLe^x, reference compound] |  | not
